Activity calls are given as the source filed them. No cut-off for these calls is given here.
Experiments:
[1] = system: HeLa; test: Cytotoxicity against human HeLa cells assessed as inhibition of number of colonies formed in soft agar after 14 days by microscopic analysis; type: functional
[2] = target: Cellular tumor antigen p53 (Mus musculus) (UniProt P02340); test: Inhibition of p53-dependent transcriptional activity in tumor promotion-sensitive mouse JB6 Cl41 cells after 12 hrs by luciferase-based method; type: cell-based
Chain of Cellular tumor antigen p53 (Mus musculus) (P02340 whole entry): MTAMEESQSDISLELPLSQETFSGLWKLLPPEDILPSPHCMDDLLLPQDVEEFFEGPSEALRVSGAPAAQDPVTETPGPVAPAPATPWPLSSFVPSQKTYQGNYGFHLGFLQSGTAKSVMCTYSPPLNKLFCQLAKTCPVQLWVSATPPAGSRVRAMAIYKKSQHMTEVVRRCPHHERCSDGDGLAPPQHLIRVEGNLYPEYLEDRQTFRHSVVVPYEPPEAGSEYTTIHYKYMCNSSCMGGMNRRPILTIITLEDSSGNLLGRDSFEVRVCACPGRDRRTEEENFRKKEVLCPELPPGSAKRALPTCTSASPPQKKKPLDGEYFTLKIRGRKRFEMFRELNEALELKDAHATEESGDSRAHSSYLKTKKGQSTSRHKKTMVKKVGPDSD

[3] = system: HeLa; test: Cytotoxicity against human HeLa cells assessed as cell viability after 48 hrs by MTS assay; type: functional, cell-based
[4] = system: HeLa; test: Ratio of IC50 to INCC50 for human HeLa cells; type: functional
[5] = system: HeLa; test: Cytotoxicity against human HeLa cells assessed as cell viability after 24 hrs by MTS assay; type: functional, cell-based
[6] = Cytotoxicity against tumor promotion-sensitive mouse JB6 Cl41 cells assessed as cell viability after 48 hrs by MTS assay; type: cell-based; conditions: JB6 Cl41, 48 h
[7] = system: HeLa; test: Induction of p53-independent apoptosis in human HeLa cells assessed as viable cells at 2.5 uM after 24 hrs by Annexin-V-FITC/propidium iodide double staining based flow cytometry (reference value: 88.52 +/- 11%); type: functional; conditions: read-out: Activity
[8] = Induction of apoptosis in tumor promotion-sensitive mouse JB6 Cl41 cells assessed as dead cells at 5 uM after 24 hrs by Annexin-V-FITC/propidium iodide staining based flow cytometry (reference value: 2.99 +/- 0.82%); type: cell-based; conditions: jb6 cl41, 24 h
[9] = system: HeLa; test: Induction of p53-independent apoptosis in human HeLa cells assessed as early apoptotic cells at 2.5 uM after 24 hrs by Annexin-V-FITC/propidium iodide double staining based flow cytometry (reference value: 6.71 +/- 4.41%); type: functional
[10] = Induction of apoptosis in tumor promotion-sensitive mouse JB6 Cl41 cells assessed as viable cells at 2.5 uM after 24 hrs by Annexin-V-FITC/propidium iodide staining based flow cytometry (reference value: 94.33 +/- 0.87%); type: cell-based; conditions: read-out: Activity
[11] = Induction of apoptosis in tumor promotion-sensitive mouse JB6 Cl41 cells assessed as late apoptotic/necrotic cells at 5 uM after 24 hrs by Annexin-V-FITC/propidium iodide staining based flow cytometry (reference value: 0.53 +/- 0.47%); type: cell-based; conditions: jb6 cl41, 24 h
[12] = system: HeLa; test: Induction of p53-independent apoptosis in human HeLa cells assessed as dead cells at 5 uM after 24 hrs by Annexin-V-FITC/propidium iodide double staining based flow cytometry (reference value: 3.89 +/- 0.3%); type: functional
[13] = Induction of apoptosis in tumor promotion-sensitive mouse JB6 Cl41 cells assessed as viable cells at 5 uM after 24 hrs by Annexin-V-FITC/propidium iodide staining based flow cytometry (reference value: 94.33 +/- 0.87%); type: cell-based; conditions: read-out: Activity
[14] = system: HeLa; test: Induction of p53-independent apoptosis in human HeLa cells assessed as late apoptotic/necrotic cells at 5 uM after 24 hrs by Annexin-V-FITC/propidium iodide double staining based flow cytometry (reference value: 0.88 +/- 0.72%); type: functional
[15] = Induction of apoptosis in tumor promotion-sensitive mouse JB6 Cl41 cells assessed as early apoptotic cells at 2.5 uM after 24 hrs by Annexin-V-FITC/propidium iodide staining based flow cytometry (reference value: 2.15 +/- 1.18%); type: cell-based; conditions: jb6 cl41, 24 h
[16] = system: HeLa; test: Induction of p53-independent apoptosis in human HeLa cells assessed as early apoptotic cells at 5 uM after 24 hrs by Annexin-V-FITC/propidium iodide double staining based flow cytometry (reference value: 6.71 +/- 4.41%); type: functional
[17] = Induction of apoptosis in tumor promotion-sensitive mouse JB6 Cl41 cells assessed as early apoptotic cells at 5 uM after 24 hrs by Annexin-V-FITC/propidium iodide staining based flow cytometry (reference value: 2.15 +/- 1.18%); type: cell-based; conditions: jb6 cl41, 24 h
[18] = system: HeLa; test: Induction of p53-independent apoptosis in human HeLa cells assessed as viable cells at 5 uM after 24 hrs by Annexin-V-FITC/propidium iodide double staining based flow cytometry (reference value: 88.52 +/- 11%); type: functional; conditions: read-out: Activity
[19] = Induction of apoptosis in tumor promotion-sensitive mouse JB6 Cl41 cells assessed as late apoptotic/necrotic cells at 2.5 uM after 24 hrs by Annexin-V-FITC/propidium iodide staining based flow cytometry (reference value: 0.53 +/- 0.47%); type: cell-based; conditions: jb6 cl41, 24 h
[20] = Induction of apoptosis in tumor promotion-sensitive mouse JB6 Cl41 cells assessed as dead cells at 2.5 uM after 24 hrs by Annexin-V-FITC/propidium iodide staining based flow cytometry (reference value: 2.99 +/- 0.82%); type: cell-based; conditions: jb6 cl41, 24 h
[21] = system: HeLa; test: Induction of p53-independent apoptosis in human HeLa cells assessed as dead cells at 2.5 uM after 24 hrs by Annexin-V-FITC/propidium iodide double staining based flow cytometry (reference value: 3.89 +/- 0.3%); type: functional
[22] = system: HeLa; test: Induction of p53-independent apoptosis in human HeLa cells assessed as late apoptotic/necrotic cells at 2.5 uM after 24 hrs by Annexin-V-FITC/propidium iodide double staining based flow cytometry (reference value: 0.88 +/- 0.72%); type: functional
[23] = Cytotoxicity against tumor promotion-sensitive mouse JB6 Cl41 cells expressing luciferase reporter gene assessed as cell viability after 12 hrs by MTS assay; type: cell-based; conditions: jb6 cl41, 12 h

SMILES | INCC50 [1] [µM] | inhibition [2] | IC50 [3] [nM] | Ratio [4] | IC50 [5] [nM] | IC50 [6] [nM] | also measured
O=C1C=C(O)C(=O)c2c(O)ccc(O)c21 | 8.06 | Active | 37800 | 4.71 | 42400 | 71200 | –
COC1=CC(=O)c2c(O)cccc2C1=O | 0.59 | Active | 1290 | 2.19 | 1180 | 1930 | –
COC1=CC(=O)c2cccc(O)c2C1=O | 0.61 | Active | 1040 | 1.7 | 960 | 1480 | –
CO[C@H]1O[C@H](COC2=CC(=O)c3cccc(O)c3C2=O)[C@@H](O)[C@H](O)[C@H]1O | 1.47 | Active | 2820 | 1.92 | 2340 | 4920 | viability at 2.5 µM [7]: 54.8%; Activity [8]: 3.07%; Activity [9]: 27.57%; viability at 24 h, 2.5 µM [10]: 91.3%; Activity [11]: 1.06%; Activity [12]: 24.08%; viability at 24 h, 5 µM [13]: 21.2%; Activity [14]: 32.74%; Activity [15]: 4.81%; Activity [16]: 18.51%; Activity [17]: 74.65%; viability at 5 µM [18]: 24.7%; Activity [19]: 1.28%; Activity [20]: 2.63%; Activity [21]: 8.37%; Activity [22]: 9.27%
CO[C@H]1O[C@H](CO)[C@@H](O)[C@H](O)[C@H]1O | >200 | inactive | > 200000 | – | > 200000 | > 200000 | Activity [23]: Non-toxic

Source: ChEMBL document CHEMBL3232964, “Quinone-carbohydrate nonglucoside conjugates as a new type of cytotoxic agents: synthesis and determination of in vitro activity” (Eur J Med Chem, 2014)
